Read-outs that look alike come from different tables or passages of the source.
Key:
H1650 cells = test: CellTiterGlo (CTG) cell viability, 3D, 120 h, H1650 (Example 8); format: cell-based, human; settings: Homo sapiens, NCI-H1650, H1650 3D
HPB-ALL (T-ALL) = test: CellTiter-Glo viability 72 h, single agent or 1/1 combination with vincristine, ABT-199 or Compound A2, HPB-ALL (Example 9); format: cell-based; settings: Homo sapiens, HPBALL, single agent or 1/1 combination as labelled
Method: (§1) Cell lines were cultured in the media described above at 37° C. in a humidified atmosphere containing 5% CO2. Cells were seeded in 96 well clear bottom plates (96 well clear-bottom, white, Corning reference 3903) and exposed to the payloads or ADCs at single agents or in 1/1 combinations with vincristine, ABT-199 or compound A2 for 72 h (serially diluted; 9 concentrations each, triplicates). Effects of payloads or ADCs on cell viability were assessed after 3 days of incubation at 37° C./5% CO2 by quantification of cellular ATP levels using CellTiter-Glo reagent (Promega Ref: G7571) at 75 μL reagent/well. All the conditions were tested in triplicates. Luminescence was quantified on a multipurpose plate reader. IC50s were calculated using standard four-parametric curve fitting. […] Each experiment was performed at least twice, with results being reproducible.

LOUCY (T-ALL) = test: CellTiter-Glo viability 72 h, single agent or 1/1 combination, LOUCY (Example 9); format: cell-based; settings: single agent or 1/1 combination as labelled
Method: as §1

MM1S (MM) = test: CellTiter-Glo viability 72 h, single agent or 1/1 combination, MM1S (Example 9); format: cell-based; settings: Homo sapiens, MM1.S, single agent or 1/1 combination as labelled
Method: as §1

ncih524 = test: In vitro ADC activity with combination partners, CellTiter-Glo 5 days, ncih524 (Example 13); format: cell-based; settings: single agent
Method: Antibody drug conjugates (ADCs) targeting IgG, B7H3, CD56, DLK1, DLL3, EpCAM, and SEZ6 were tested against cancer cell lines obtained from ATCC (American Type Culture Collection) or from other commercial cell line vendors (cor1279, ncih1436, ncih146, ncih211, ncih524). The cells were cultured in media that is optimal for their growth at 5% CO2, 37° C. in a tissue culture incubator. Prior to seeding for the proliferation assay, the cells were split at least 2 days before the assay to ensure optimal growth density. On the day of seeding, cells were lifted off tissue culture flasks using 0.25% trypsin. Cell viability and cell density were determined using a cell counter (Vi-Cell XR Cell Viability Analyzer, Beckman Coulter). Cells with higher than 85% viability were seeded in white clear bottom 384-well plates (Greiner cat #781098) at a density of 1000 cells per well in 50 μL of standard growth media. Plates were incubated at 37° C. overnight in a tissue culture incubator.
The ADCs were prepared in standard phosphate buffered solution to desired concentrations. A series of 10 dilutions were made for each ADC. The prepared drug treatments were then added to the cells resulting in final concentrations of 300 nM to 0.015 nM. Combination partners (Venetoclax and Topotecan) were added at fixed concentrations. Acoustic transfer devices (Echo525, Echo550, Beckman Coulter) were used to add the ADCs or combination partners to the cells. Each treatment was tested in triplicate assay plates. Plates were incubated at 37° C. overnight or for 5 days in a tissue culture incubator. The ability of the ADCs to inhibit cell proliferation and survival was assessed using the Promega CellTiter-Glo® proliferation assay. Plates were incubated at room temperature for 20 minutes to stabilize luminescent signals prior to reading using a multimode plate reader (Pherastar, BMG). Luminescent counts of untreated cells were taken the day after seeding (Day 0 readings), and after 5 days of treatment (Day 5 readings). The Day 5 readings of the untreated cells were compared to the Day 0 readings. Assays with at least one cell doubling during the incubation period were considered valid. To evaluate the effect of the drug treatments, luminescent counts from wells containing untreated cells (100% viability) were used to normalize treated samples. The concentrations of treatment required to inhibit 50% of cell growth or survival ([…]) were calculated using a four parameter logistic regression equation.

Cc1c(Nc2nc3ccccc3s2)nnc2c1CCCN2c1ccc(-c2cnn(C[C@]34C[C@]5(C)C[C@](C)(C3)C[C@@](OCCN3CCCC3)(C5)C4)c2C)c(C(=O)O)n1 [P21, 6-[3-(1,3-benzothiazol-2-ylamino)-4-methyl-6,7-dihydro-5H-pyrido[2,3-c]pyridazin-8-yl]-3-[1-[[3,5-dimethyl-7-(2-pyrrolidin-1-ylethoxy)-1-adamantyl]methyl]-5-methyl-pyrazol-4-yl]pyridine-2-carboxylic acid]
IC50 (H1650 cells; experiment n1, read-out: H1650 3D CTG IC50 n1): 0.31 nM
IC50 (H1650 cells; experiment n2, read-out: H1650 3D CTG IC50 n2): 0.37 nM
IC50 (H1650 cells; mean of n1 and n2, read-out: H1650 3D CTG IC50 Mean of n1 and n2): 0.34 nM
IC50 (HPB-ALL (T-ALL); mean, read-out: HPB-ALL (T-ALL) IC50 mean): 1.01 nM
IC50 (HPB-ALL (T-ALL); n1, read-out: HPB-ALL (T-ALL) IC50 n1): 1.33 nM
IC50 (HPB-ALL (T-ALL); n2, read-out: HPB-ALL (T-ALL) IC50 n2): 0.69 nM
IC50 (LOUCY (T-ALL); mean, read-out: LOUCY (T-ALL) IC50 mean): 0.73 nM
IC50 (LOUCY (T-ALL); n1, read-out: LOUCY (T-ALL) IC50 n1): 0.73 nM
IC50 (MM1S (MM); mean, read-out: MM1S (MM) IC50 mean): 17.4 nM
IC50 (MM1S (MM); n1, read-out: MM1S (MM) IC50 n1): 10.4 nM
IC50 (MM1S (MM); n2, read-out: MM1S (MM) IC50 n2): 24.3 nM
GI50 (ncih524; Homo sapiens, NCI-H524, 120 h): 0.000508 µM
GI Amax ncih524 (ncih524): −97.52

Reference: patent US20240269304A1, “BCL-XL INHIBITOR ANTIBODY-DRUG CONJUGATES AND METHODS OF USE THEREOF” (Novartis AG, priority 2020, published 2024)
